# Test results published in paper PMC9557946, “Intermittent MEK inhibition for the treatment of metastatic uveal melanoma” (Frontiers in Oncology, 2022).
# Like-named read-outs stand apart in the source and are kept apart here.
# Experiments:
# [1] = in vivo
# Procedure: Non-compartmental analyses were performed on the data for day 1, 2, 15 and 17 using Winnonlin software (Phoenix Winnonlin 8.3.1.5014, Certara L.P., Princeton, NJ). […] Data were summarized per dose level and per occasion. Dose-exposure relationships were explored by plotting dose versus the various parameters. Accumulation was investigated using the AUC assessed at various days.
# uveal melanoma = test system: uveal melanoma; set-up: method as in PMID 22550165; conditions: ref [7], cited from earlier work
# [2] = test system: metastatic uveal melanoma; assay: Phase Ib trial of intermittent selumetinib: clinical efficacy (RECIST v1.1, PFS, OS); assay type: in vivo, human
# Excerpt: This was a multi-center, open-label, phase Ib study conducted at Columbia University Irving Medical Center (New York, NY), University of Texas MD Anderson Cancer Center (Houston, TX), and Memorial Sloan Kettering Cancer Center (New York, NY). The primary objective of this study was to determine the maximum tolerated dose (MTD) of selumetinib administered using an intermittent dosing schedule in patients with metastatic UM. […] Exploratory objectives included pharmacodynamic (PD) assessment of target inhibition of the MEK pathway.
# Descriptive statistics were used to report baseline characteristics of the study population. The observed rate and estimated rate of DLT were reported for each dose level along with the 90% probability interval. The number and percentage of patients with adverse events were summarized taking the highest grade and reported by grade for AEs that were at least possibly related to treatment. AEs with at prevalence of least 10% were reported separately. The overall response rate (ORR) was defined as a confirmed complete response (CR) or partial response (PR) according to RECIST 1.1 criteria ([18]) and reported by dose level. Disease control rate (DCR) was defined as the percentage of patients with a confirmed CR, PR or stable disease. PFS was measured from date of enrollment until the date of progression or death, whichever occurred first. OS was defined as the time from the date of registration to the date of death by any cause.
# Imaging was obtained at baseline, at 8 weeks after start of study treatment, and then every 8 weeks thereafter. Imaging of the chest, abdomen, and pelvis was required at each time point, with contrast enhanced MRI of the liver performed whenever possible. Response was assessed using RECIST v.1.1 criteria by investigator assessment. Criteria for removal from study included radiographic or clinical disease progression, or unacceptable toxicity.
# [3] = All Levels, investigator assessed RECIST v1.1
# [4] = Level 1 (100 mg BID), investigator assessed RECIST v1.1
# [5] = Level 2 (125 mg BID), investigator assessed RECIST v1.1
# [6] = Level 3 (150 mg BID), investigator assessed RECIST v1.1
# [7] = Level 4 (175 mg BID), investigator assessed RECIST v1.1
smiles,measurement,setting,value
Cn1cnc2c(F)c(Nc3ccc(Br)cc3Cl)c(C(=O)NOCCO)cc21 [selumetinib],AUC0-4h,"[1]; human, 100 mg",2903 ± 461 (6) h*ng/mL
same,AUC0-8h,"[1]; human, 100 mg",4265 ± 628 (2) h*ng/mL
same,CL/F,"[1]; human, 100 mg",20.9 ± 3.7 (2) L/h
same,Cmax,"[1]; human, 100 mg",1453 ± 530 (6) ng/mL
same,Tmax,"[1]; human, 100 mg",1.7 ± 0.5 (6) h
same,t½,"[1]; human, 100 mg",2.4 ± 0.3 (2) h
same,AUC0-4h,"[1]; human, 125 mg",4270 ± 1470 (56) h*ng/mL
same,AUC0-8h,"[1]; human, 125 mg",6042 ± 2210 (29) h*ng/mL
same,CL/F,"[1]; human, 125 mg",18.7 ± 8.1 (26) L/h
same,Cmax,"[1]; human, 125 mg",2115 ± 798 (56) ng/mL
same,intra-patient coefficient of variation for AUC0-8h,"[1]; human, 125 mg",11.3%
same,intra-patient coefficient of variation for Cmax,"[1]; human, 125 mg",25.3%
same,t½,"[1]; human, 125 mg",4.3 ± 5.7 (26) h
same,AUC0-4h,"[1]; human, 150 mg",6073 ± 1540 (8) h*ng/mL
same,AUC0-8h,"[1]; human, 150 mg",6683 ± 729 (4) h*ng/mL
same,CL/F,"[1]; human, 150 mg",14.8 ± 7.6 (8) L/h
same,Cmax,"[1]; human, 150 mg",3041 ± 1155 (8) ng/mL
same,t½,"[1]; human, 150 mg",7.9 ± 9.1 (3) h
same,accumulation,[1],little to no accumulation
same,median PFS,uveal melanoma; selumetinib 75 mg BID vs temozolomide or DTIC,16 weeks
same,patients achieving an objective radiographic response,uveal melanoma; selumetinib 75 mg BID,14%
same,median PFS,[2]; 125mg twice daily cohort,1.7 months
same,Complete Response (CR),[2]; [3],0
same,Partial Response (PR),[2]; [3],0
same,Median duration of Stable Disease,[2]; Level 1 (100 mg BID),7.1 months
same,Complete Response (CR),[2]; [4],0
same,Overall Response Rate (ORR),[2]; [4],0
same,Partial Response (PR),[2]; [4],0
same,Median Time to Progression (range),"[2]; Level 1 (100 mg BID), range 1.2-10.8",3.4 months (1.2-10.8)
same,Median duration of Stable Disease,[2]; Level 2 (125 mg BID),4.1 months
same,Complete Response (CR),[2]; [5],0
same,Overall Response Rate (ORR),[2]; [5],0
same,Partial Response (PR),[2]; [5],0
same,Median Time to Progression (range),"[2]; Level 2 (125 mg BID), range 0.9-5.5",1.7 months (0.9-5.5)
same,Median duration of Stable Disease,[2]; Level 3 (150 mg BID),4.9 months
same,Complete Response (CR),[2]; [6],0
same,Overall Response Rate (ORR),[2]; [6],0
same,Partial Response (PR),[2]; [6],0
same,Median Time to Progression (range),"[2]; Level 3 (150 mg BID), range 0.9-6.2",3.7 months (0.9-6.2)
same,Complete Response (CR),[2]; [7],0
same,Overall Response Rate (ORR),[2]; [7],0
same,Partial Response (PR),[2]; [7],0
same,"Progressive Disease (PD), patients/total (%)",[2]; [7],0
same,ORR,"[2]; all 29 patients, RECIST v1.1",0%
same,"best response of stable disease, percent of patients","[2]; at 8 weeks from treatment initiation, n=11 of 29",38%
same,median progression-free response by cohort,[2]; range across dose cohorts,1.7-3.7 months
same,median PFS,"[2]; total population (29 patients), 95% CI 1.7, 4.5",1.8 months
same,median OS,"[2]; total population (29 patients), 95% CI 5.3, 11.5",7.1 months
